Patent US11498853B2, “Water with switchable ionic strength” (QUEEN'S UNIVERSITY AT KINGSTON, priority 2010, dated 2022)
Values joined by “and” are separate entries in the source; they are usually repeats but may differ in a detail not shown here. Equal entries are not always repeated. Where two headings read alike, the source gives them in different places. One block for each compound: values may come before it.

Columns and labels:
[1] = Miscibility of diamines and triamines with water in presence and absence of CO2; type: physicochemical; conditions: 5:1 w/w water and liquid additive; for Miscibility with water, After addition of CO2: CO2 90 min; for Miscibility with water, Before addition of CO2: room temperature
Protocol: A 5:1 w/w solution of water and the liquid additive (total volume 5 m) were mixed together in a glass vial at room temperature. Whether the mixture formed one or two liquid phases was visually observed. Then CO2 was bubbled through the mixture via a single narrow gauge steel needle at a flow rate of ˜5 ml min^−1 for 90 min. Whether the mixture formed one or two phases was visually observed.

[2] = Solvent switching of diamidine/water system, 1H NMR; type: physicochemical; conditions: 0.80 molal, 30 minutes CO2
Protocol: The diamidine was investigated as additive for switchable ionic strength solutions. […] The volumes of each phase were recorded.

[3] = Zeta potential of suspended clay fines in switchable water; type: physicochemical
Protocol: (§1) Clay fines were weighed and placed into individual vials (0.025 g, Ward's Natural Science Establishment). Kaolinite and montmorilonite were used as received, but as illite day was ground into a powder using a motar and pestle. Solutions containing additives were made with deionized water (18.2 MΩ/cm, Millipore) and 10 ml was added to the clay fines. A suspension was created using a vortex mixer and subsequently dispensed into a folded capillary cell. The zeta potential was measured using a Malvern Zetasizer instrument. The errors reported on the zeta potential values were the standard deviations of the zeta potential peaks measured.
(§2) Unless specified, all carbon dioxide treatments were conducted with the aqueous solutions prior to addition to day fines. For applicable measurements, ultra pure carbon dioxide (Supercritical CO2 Chromatographic Grade, Paxair) was bubbled through the solutions using a syringe.

[4] = Separation of THF from aqueous phase and retention of additive on switching with CO2, by 1H NMR; type: physicochemical
Protocol: (§3) The volumes of each phase were recorded.
The graduated cylinders were capped with rubber septa. […] A second narrow gauge steel tube was provided to vent the gaseous phase.
as §3

[5] = Reversible protonation of amine additives in H2O monitored by conductivity; type: physicochemical
Protocol: 1:1 w/w H2O and THEED was used because a 1:1 v/v solution was too viscous to pour accurately. A trigger gas chosen from CO2, air or nitrogen was bubbled at identical flow rates through the solution via a narrow gauge steel tube and the conductivity of the solution was measured periodically using a Jenway 470 Conductivity Meter (Bibby Scientific, NJ, US) having a cell constant of 1.02 cm^−1.
The deprotonation reactions of the ionic solutions of additives in water were monitored in a similar manner, and the conductivity plot is shown in FIG. 8.
1:1 v/v solutions of the various additives and distilled, deionised water were prepared in six dram glass vials and transferred to a fritted glass apparatus which acted as a reaction vessel. The fritted glass apparatus consisted of a long narrow glass tube leading to a fine glass frit having a diameter of approximately 4 cm. The other end of the glass frit was connected to a cylindrical glass tube which held the solution of the additive during contacting with the trigger gas. This apparatus allowed a multiple source of trigger gas bubbles to contact the solution, compared to the single point source of Example 5.
A trigger gas chosen from CO2, air or nitrogen was bubbled through the solution via the glass frit at a flow rate of 110 ml min^−1 as measured by a J&W Scientific ADM 2000 Intelligent Flowmeter (CA, USA). For each conductivity measurement, the solution was transferred back to a six dram vial, cooled to 298 K and measured in triplicate. Conductivity measurements were performed using a Jenway 470 Conductivity Meter (Bibby Scientific, NJ, US) having a cell constant of 1.02 cm^−1.

[6] = Zeta potential of suspended clay fines in switchable water; type: physicochemical; conditions: Kaolinite
Protocol: as §1, §2
Another experiment was performed in which CO2 was bubbled through a 1 mM aqueous solution of TMDAB that already contained clay fines (a method referred to as “switching in situ”).

[7] = Degree of protonation/deprotonation of amine additives in D2O by 1H NMR; conditions: 0.1 M in D2O; for degree of protonation by CO2: room temperature
Protocol: In order to establish the chemical shifts of the protonated bases, molar equivalents of several strong acids, including HCl and HNO3, were added to separate solutions of the amines dissolved in D2O. ^1H NMR spectra were acquired on a Bruker AV-400 NMR spectrometer at 400.3 MHz for three replicate solutions of each amine. An average value of each chemical shift for each protonated base was calculated along with standard deviations. […] The ^1H NMR chemical shifts of the unprotonated amines were also measured.
The amine was dissolved in D2O in an NMR tube and sealed with a rubber septa. The spectrum was then acquired. Subsequently, two narrow gauge steel needles were inserted and gas was gently bubbled through one of them into the solution at approximately 4-5 bubbles per second. The second needle served as a vent for the gaseous phase.
Firstly CO2 was bubbled through the solution for the required length of time and then the spectrum was re-acquired. This process was repeated. The % protonation of the amine was determined from the observed chemical shifts by determining the amount of movement of the peaks from the normal position for the unprotonated amine towards the position expected for the fully protonated amine.
Nitrogen gas was flushed through the solution at 75° C.
In order to establish the chemical shifts of the protonated bases, molar equivalents of several strong acids, including HCl and HNO3, were added to separate solutions of the tetraamine dissolved in D2O. ^1H NMR spectra were acquired on a Bruker AV-400 NMR spectrometer at 400.3 MHz for three replicate solutions of the amine. An average value of each chemical shift for each protonated base was calculated along with standard deviations. […] The ^1H NMR chemical shifts of the unprotonated amine were also measured. […]

[8] = 0.80 molal
Protocol: The methylated spermine was investigated as additive for switchable ionic strength solutions. To measure the extent of THF being forced out of an aqueous phase by an increase in ionic strength, and the amounts of amine, which remained in the aqueous phase, 1:1 w/w solutions of THF and water were prepared in graduated cylinders. The appropriate mass of amine additive to result in a 0.80 molal solution was added and the cylinders were capped with rubber septa. […] The volumes of each phase were recorded. Aliquots of the non-aqueous and aqueous layers were taken and dissolved in d3-acetonitrile in NMR tubes. A known amount of ethyl acetate was added to each NMR tube as an internal standard. ^1H NMR spectra were acquired and through integration of the ethyl acetate standard, a concentration of THF or additive was calculated and scaled up to reflect the total volume of the aqueous or non-aqueous phase giving a percentage of the compound being forced out or retained. Then argon was bubbled through the solution while heating to 50° C. until the two phases recombined (15 to 60 min). The whole switching process (30 min CO2, sample take, then another 30 min of Ar) was repeated.

[9] = Salting out THF from water using secondary amine additives, 1H NMR; type: physicochemical; conditions: 1.60 molal, 1:1 w/w THF:water, 30 minutes CO2
Protocol: N-tert-Butylethanolamine and N-ter-butymethylamine were investigated as additives for switchable ionic strength solutions. […] The volumes of each phase were recorded. […] The recombining of the phases when N-tert-butymethylamine was used as an additive was not successful at 30 min but was achieved by 2 h at a higher Ar flow rate of 15 mL/min. THF was added afterwards to replace the amount of THF being evaporated during the procedure.

[10] = Expulsion of THF from water and removal of additive from the aqueous phase; type: physicochemical; conditions: for additive removed from the aqueous phase after N2 treatment: separated aqueous phase, N2 90 minutes, 60° C.
Protocol: 1.50 g H2O, 1.50 g THF, and 0.30 g N,N,N′N′-tetraethyl-1,4-diaminobutane (TEDAB) were mixed together in a graduated cylinder to generate a single phase solution. […] A small stir bar was added to the solution and the cylinder was capped with a rubber septa. The following procedure was run in triplicate with a new sample (of the same contents shown above) each time.
A long, narrow gauge needle was inserted through the septa into the solution. […] CO2 was bubbled through the solution a flow rate of about 5 ml/min for 45 minutes with stirring until a 2nd phase creams out on top of the aqueous phase. The CO2 bubbling was stopped and the needles withdrawn. The cylinder was immersed in a hot water bath for several seconds to facilitate the separation of the liquid phases. Both phases were clear and yellow in colour.
The organic phase was decanted off giving a mass of 1.253 g (density=0.84 g/m).
A 39.1 mg sample of the organic phase was placed in an NMR tube with deuterated acetonitrile and 50.2 mg ethyl acetate to act as an internal standard. A 66.2 mg sample of the aqueous phase was placed in a 2nd NMR tube with deuterated acetonitrile with 22.3 mg ethyl acetate to act as an internal standard. A ^1H NMR spectra was acquired and knowing the corresponding amount of ethyl acetate in each sample the resulting amounts of THF in the aqueous sample and additive in the organic sample can be calculated. Knowing the mass, volume, and density of each layer, the total amount of THF or additive in a respective layer can be calculated.
1.943 g (1.90 ml) of the aqueous phase was returned to the same graduated cylinder. The needles and septa were put back into the cylinder and the cylinder was immersed in a 60° C., water bath. N2 was introduced in the same fashion as CO2 preformed previously and the N2 was bubbled through the solution for 90 minutes where a deep yellow organic phase creams out of the aqueous phase.
A 37.9 mg sample of the aqueous phase was taken up in an NMR tube with deuterated acetonitrile and 41.5 mg ethyl acetate to act as an internal standard.

[11] = 0.80 molal additive, 1:1 w/w THF:H2O, 30 min CO2, in aqueous phase
[12] = 1:1 v/v additive:water, 25° C., glass frit
[13] = 1:1 v/v, N2 at 80° C., glass frit

SMILES: CN(C)Cc1cc(CN(C)C)cc(CN(C)C)c1 [1,3,5-C6H3(CH2NMe2)3, N,N,N′,N′,N″,N″-1,3,5-benzenetrimethanamine]
Miscibility with water, After addition of CO2 [1]: miscible | Miscibility with water, Before addition of CO2 [1]: miscible

SMILES: CN(C)CC1CC(CN(C)C)CC(CN(C)C)C1 (stereo not drawn) [1,3,5-cycloC6H9(CH2NMe2)3, 1,1′,1″-(cyclohexane-1,3,5-triyl)tris(N,N,-dimethylmethanamine)]
Miscibility with water, After addition of CO2 [1]: miscible | Miscibility with water, Before addition of CO2 [1]: immiscible

SMILES: C/C(=N\CCCC/N=C(\C)N(C)C)N(C)C [DIAC, N,N-(butane-1,4-diyl)bis(N,N-dimethylacetimidamide)]
additive retained in the aqueous phase [2]: 99.5%

SMILES: CC(O)CN(CCCN(C)C)CCCN(C)C (stereo not drawn) [DMAPAP]
Zeta Potential ([3]; Illite, 0.8 molal additive): −19.1 ± 3.92 mV | Zeta Potential ([3]; Illite, 0.8 molal additive + 1 h CO2): −1.87 mV | Zeta Potential ([3]; Montmorillonite, 0.8 molal additive): −16.8 ± 4.64 mV | Zeta Potential ([3]; Montmorillonite, 0.8 molal additive + 1 h CO2): −2.99 mV | % Additive Retained [4, 11]: 98.8 ± 0.4% | % Additive Retained ([4]; THF:H2O:Additive 3:3:1 w/w/w): 87.1 ± 7.3% | % Additive Retained ([4]; THF:H2O:Additive 5:5:1 w/w/w): 98.4 ± 0.4% | % Additive Retained ([4]; THF:H2O:Additive 10:10:1 w/w/w): 96.0 ± 0.8% | % Additive Retained ([4]; THF:H2O:Additive 15:15:1 w/w/w): 94.4 ± 1.1% | conductivity on CO2 bubbling [5, 12]: lower conductivities than TMDAB | Zeta Potential ([6]; 0.8 molal additive): −24.3 ± 2.29 mV | Zeta Potential ([6]; 0.8 molal additive + 1 h CO2): −3.99 mV

SMILES: CN(C)CCN(C)CCN(C)CCN(C)C [HMTETA, 1,1,4,7,10,10-hexamethyl triethylenetetramine]
% Additive Retained [4, 11]: 99.3 ± 0.4% | % Additive Retained ([4]; THF:H2O:Additive 3:3:1 w/w/w): 95.6 ± 1.5% | % Additive Retained ([4]; THF:H2O:Additive 5:5:1 w/w/w): 98.4 ± 1.2% | % Additive Retained ([4]; THF:H2O:Additive 10:10:1 w/w/w): 98.0 ± 1.0% | % Additive Retained ([4]; THF:H2O:Additive 15:15:1 w/w/w): 98.2 ± 0.3% | conductivity on CO2 bubbling [5, 12]: lower conductivities than TMDAB | conductivity of ionic form after 20 minutes of N2 [5, 13]: close to zero

SMILES: CN(C)CCCN(C)CCCCN(C)CCCN(C)C [MeSpe, N^1,N^1′-(butane-1,4-diyl)bis(N^1,N^2,N^3-trimethylpropane-1,3-diamine)]
degree of protonation by CO2 [7]: 93% | Additive retained in THF ([8]; 30 min CO2, run 1): 99.85% | Additive retained in THF ([8]; 30 min CO2, run 2): 99.79%

Further lines, results first:

Additive retained in H2O [9]: 99.84 ± 0.04%
SMILES: CC(C)(C)NCCO [N-tert-butylethanolamine]

Additive retained in H2O [9]: 99.75 ± 0.04%
SMILES: CNC(C)(C)C [N-tert-butymethylamine]

Miscibility with water, After addition of CO2 [1]: immiscible | Miscibility with water, Before addition of CO2 [1]: immiscible
SMILES: CCCN(CCC)CCCCN(CCC)CCC [Pr2NCH2CH2CH2CH2NPr2, N,N,N′,N′-tetrapropyl-1,4-diaminobutane]

additive removed from the aqueous phase after N2 treatment [10]: 81% | Miscibility with water, After addition of CO2 [1]: miscible | Miscibility with water, Before addition of CO2 [1]: immiscible
SMILES: CCCN(CC)CCCCN(CC)CCC [PrEtNCH2CH2CH2CH2NPrEt, N,N′-diethyl-N,N′-dipropyl-1,4-diaminobutane]

additive residing in the aqueous phase after CO2 treatment ([10]; 1.50 g H2O, 1.50 g THF, 0.30 g additive, CO2 45 minutes): 91.1±3.7% | additive removed from the aqueous phase after N2 treatment [10]: 49.3±6.3% | Miscibility with water, After addition of CO2 [1]: miscible | Miscibility with water, Before addition of CO2 [1]: immiscible
SMILES: CCN(CC)CCCCN(CC)CC [TEDAB, N, N, N′, N′-tetraethyl-1,4-diaminobutane]

degree of deprotonation ([7]; N2 bubbling at 75° C., 2 hours (120 minutes)): 98% | degree of protonation by CO2 ([7]; by 10 minutes): 49%
SMILES: OCCN(CCO)CCN(CCO)CCO [THEED, N, N, N′, N′-tetrakis(2-hydroxyethyl) ethylenediamine]

% Additive Retained [4, 11]: 99.2 ± 0.4% | % Additive Retained ([4]; THF:H2O:Additive 3:3:1 w/w/w): 87.1 ± 2.1% | % Additive Retained ([4]; THF:H2O:Additive 5:5:1 w/w/w): 99.8% and 99.6 ± 0.1% | % Additive Retained ([4]; THF:H2O:Additive 10:10:1 w/w/w): 99.4 ± 0.1% | % Additive Retained ([4]; THF:H2O:Additive 15:15:1 w/w/w): 98.4 ± 0.4% | reduction of conductivity ([5]; 1:1 v/v H2O:amine, 90 minutes, 80° C., N2 through a glass frit): approximately 95% | rate of conductivity increase on CO2 bubbling [5, 12]: highest rate of conductivity increase | rate of conductivity decrease on N2 flushing [5, 13]: highest
SMILES: CN(C)CCCCN(C)C [TMDAB, N, N, N′, N′-tetramethyl-1,4-diaminobutane]
